Literature values in US20250235469A1, “Synergistic combinations of Finasteride, Dutasteride, and Minoxidil” (priority 2024, published 2025).

Columns and labels:
DHT levels = conditions: 5 mg daily dose; 2004 study
[1] = in vivo
[2] = target: T1, 5α-reductase type 2 isoenzyme (Homo sapiens, UniProt P31213)
T1 sequence (P31213 1-254): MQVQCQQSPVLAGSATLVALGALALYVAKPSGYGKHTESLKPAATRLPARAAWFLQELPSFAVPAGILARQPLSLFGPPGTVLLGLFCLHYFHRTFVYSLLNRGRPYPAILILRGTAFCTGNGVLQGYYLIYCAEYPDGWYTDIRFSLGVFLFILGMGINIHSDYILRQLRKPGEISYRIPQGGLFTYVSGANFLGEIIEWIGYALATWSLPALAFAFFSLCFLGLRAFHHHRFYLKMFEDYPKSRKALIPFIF

[3] = target: T2, 5α-reductase type 1 isoenzyme (Homo sapiens, UniProt P18405)
T2 sequence (P18405 1-259): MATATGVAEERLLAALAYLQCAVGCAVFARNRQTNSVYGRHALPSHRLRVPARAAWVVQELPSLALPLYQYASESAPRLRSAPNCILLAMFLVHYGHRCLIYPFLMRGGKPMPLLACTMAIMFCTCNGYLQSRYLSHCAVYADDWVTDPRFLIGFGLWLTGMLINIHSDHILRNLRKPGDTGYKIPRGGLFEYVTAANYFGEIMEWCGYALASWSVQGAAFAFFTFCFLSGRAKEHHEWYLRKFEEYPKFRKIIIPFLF

| Structure (SMILES) | reduced DHT levels (DHT levels) [%] | hair count and hair loss in users (hair count; studies of finasteride users) | half-life [1] | inhibition of type 2 isoenzyme of 5α-reductase [2] | increase in hair count (hair count; men, 2006 study, dutasteride compared to finasteride) | inhibition of type 1 isoenzyme of 5α-reductase [3] |
| --- | --- | --- | --- | --- | --- | --- |
| CC(C)(C)NC(=O)[C@H]1CC[C@H]2[C@@H]3CC[C@H]4NC(=O)C=C[C@]4(C)[C@H]3CC[C@]12C [finasteride, 17β-(N-tert-butylcarbamoyl)-4-aza-5α-androst-1-en-3-one] | 70.8 | both an increase in hair count and a reduction in hair loss | only a few hours | only inhibits the type 2 isoenzyme |  |  |
| C[C@]12C=CC(=O)N[C@@H]1CC[C@@H]1[C@@H]2CC[C@]2(C)[C@@H](C(=O)Nc3cc(C(F)(F)F)ccc3C(F)(F)F)CC[C@@H]12 [dutasteride, N-[2,5-bis(trifluoromethyl)phenyl]-3-oxo-4-aza-5α-androst-1-ene-17β-carboxamide] | 98.4 |  | several months | inhibits both the types 1 and 2 isoenzymes | higher increase in hair count | inhibits both the types 1 and 2 isoenzymes |
